Assays:
JAK3 = JAK3 (Homo sapiens (Human), UniProt P52333); experiment: JAK3 kinase assay (radiometric filter assay); assay type: biochemical; details: 10 μM ATP; 10-dose IC50 mode, 3 fold serial dilution starting at 100 μM; read-out: JAK3 kinase inhibition
Description: (§1) All additions were done on ice, followed by the addition of ATP mix. Wells were uniformly mixed using an Eppendorff plate shaker and incubated at 30° C. for 20 min, and stopped by the addition of 5 μL of 3% phosphoric acid. Volume was increased to 100 μL by adding 0.8% phosphoric acid which was then transferred to PC filter mats (Millipore), pre-equilibrated with 70% ethanol and water. Plates were washed thrice with 100 μL 0.8% phosphoric acid and dried for an hour at 60° C. 100 μL scintillation fluid was added into each well and reading taken in Perkin Elmer TOPCOUNT beta counter.
(§2) The reactions were carried out at 10 μM ATP for ITK, JAK3 and other TEC and Janus family of kinase.

ITK = ITK (Homo sapiens (Human), UniProt Q08881); experiment: ITK kinase assay (radiometric filter assay); assay type: biochemical; details: 10 μM ATP; 10-dose IC50 mode, 3 fold serial dilution starting at 100 μM; read-out: ITK kinase inhibition
Description: as §1, §2

[1] = test system: Established Type II Collagen Arthritis; experiment: Established type II collagen arthritis, PO BID, 11 day
From the text: Effects of 1H-pyrrolo[2,3-b]pyridine series of compounds Administered PO, BID in 11 Day DBA/1OlaHsd Mouse Established Type II Collagen Arthritis

Sequence of JAK3 (P52333 whole entry): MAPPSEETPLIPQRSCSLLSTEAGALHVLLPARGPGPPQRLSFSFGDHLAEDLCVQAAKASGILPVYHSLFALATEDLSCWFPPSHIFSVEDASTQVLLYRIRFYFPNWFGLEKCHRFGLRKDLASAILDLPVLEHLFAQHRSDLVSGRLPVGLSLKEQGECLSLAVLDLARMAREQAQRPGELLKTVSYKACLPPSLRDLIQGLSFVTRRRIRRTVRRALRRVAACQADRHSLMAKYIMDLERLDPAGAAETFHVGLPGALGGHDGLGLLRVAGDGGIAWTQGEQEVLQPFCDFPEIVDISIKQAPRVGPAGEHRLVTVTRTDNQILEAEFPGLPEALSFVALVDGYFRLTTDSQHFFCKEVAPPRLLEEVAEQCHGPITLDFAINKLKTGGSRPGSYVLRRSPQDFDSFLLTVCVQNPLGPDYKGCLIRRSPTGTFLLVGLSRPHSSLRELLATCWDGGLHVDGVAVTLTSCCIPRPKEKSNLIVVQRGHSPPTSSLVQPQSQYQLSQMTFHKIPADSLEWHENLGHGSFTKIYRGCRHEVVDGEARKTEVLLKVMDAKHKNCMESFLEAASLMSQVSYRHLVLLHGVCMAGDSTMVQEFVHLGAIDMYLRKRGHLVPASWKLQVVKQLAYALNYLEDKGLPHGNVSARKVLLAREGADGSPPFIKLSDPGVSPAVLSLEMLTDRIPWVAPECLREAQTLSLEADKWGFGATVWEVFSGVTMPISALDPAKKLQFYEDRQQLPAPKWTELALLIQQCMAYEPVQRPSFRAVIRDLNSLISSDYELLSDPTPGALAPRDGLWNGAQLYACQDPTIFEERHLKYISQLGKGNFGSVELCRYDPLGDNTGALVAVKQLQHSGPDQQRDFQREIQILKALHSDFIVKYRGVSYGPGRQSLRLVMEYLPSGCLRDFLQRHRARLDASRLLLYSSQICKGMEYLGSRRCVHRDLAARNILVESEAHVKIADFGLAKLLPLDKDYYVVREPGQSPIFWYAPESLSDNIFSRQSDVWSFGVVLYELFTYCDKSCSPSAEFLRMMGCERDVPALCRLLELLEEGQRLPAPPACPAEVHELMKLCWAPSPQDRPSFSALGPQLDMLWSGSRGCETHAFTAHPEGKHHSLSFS
Sequence of ITK (Q08881 whole entry): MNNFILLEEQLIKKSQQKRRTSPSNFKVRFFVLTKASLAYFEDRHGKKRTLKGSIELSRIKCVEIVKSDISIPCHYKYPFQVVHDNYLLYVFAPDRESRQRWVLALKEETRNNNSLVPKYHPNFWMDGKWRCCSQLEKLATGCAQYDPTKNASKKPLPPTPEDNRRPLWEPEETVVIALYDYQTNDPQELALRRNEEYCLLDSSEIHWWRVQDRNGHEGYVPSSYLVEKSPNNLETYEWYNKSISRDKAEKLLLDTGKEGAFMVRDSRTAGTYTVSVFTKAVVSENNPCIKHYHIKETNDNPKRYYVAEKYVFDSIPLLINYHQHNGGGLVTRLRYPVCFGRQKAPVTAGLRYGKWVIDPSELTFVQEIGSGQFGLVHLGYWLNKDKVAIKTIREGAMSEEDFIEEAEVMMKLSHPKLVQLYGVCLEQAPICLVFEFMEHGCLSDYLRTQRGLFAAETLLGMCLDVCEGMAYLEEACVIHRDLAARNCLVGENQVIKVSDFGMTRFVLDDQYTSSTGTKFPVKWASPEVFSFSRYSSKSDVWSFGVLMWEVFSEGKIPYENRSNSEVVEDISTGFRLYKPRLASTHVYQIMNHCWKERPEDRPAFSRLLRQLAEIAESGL

| SMILES | IC50 (JAK3) [nM] | IC50 (ITK) [nM] | body weight ([1]; 60 mg/Kg) | effectiveness, suppression of the inflammatory response ([1]; collagen-induced arthritis in mice, PO BID) [%] |
| --- | --- | --- | --- | --- |
| C=CC(=O)Nc1cccc(-c2cnc3[nH]cc(NS(=O)(=O)CCC)c3c2)c1 [Example 97, N-(3-(3-(propylsulfonamido)-1H-pyrrolo[2,3-b]pyridin-5-yl)phenyl)acrylamide] | > 100 | > 100 |  |  |
| CCC#CC(=O)Nc1cc(-c2cnc3[nH]cc(C)c3c2)ccc1F [Example 31, N-(2-fluoro-5-(3-methyl-1H-pyrrolo[2,3-b]pyridin-5-yl)phenyl)pent-2-ynamide] | < 100 | < 100 |  |  |
| C[C@@H]1CCN(C(=O)CC#N)C[C@@H]1N(C)c1ncnc2[nH]ccc12 [CP-690550/Tofacitinib, Tofacitinib] |  |  | body weight change from day 1 | 97 |

Reference: US9834551B2, “Substituted pyrrolo[2,3-b]pyrazines and substituted pyrazolo[3,4-b]pyridines as ITK and JAK kinase inhibitors” (Arrien Pharmaceuticals LLC, priority 2013, dated 2017)
